Test results as given in ChEMBL document CHEMBL5291721, “A preclinical secondary pharmacology resource illuminates target-adverse drug reaction associations of marketed drugs” (Nat Commun, 2023).

Columns and labels:
[1] = molecular target: T1, 5-hydroxytryptamine receptor 1A (Homo sapiens, UniProt P08908); assay type: functional, cell-based
T1 sequence (P08908 whole entry): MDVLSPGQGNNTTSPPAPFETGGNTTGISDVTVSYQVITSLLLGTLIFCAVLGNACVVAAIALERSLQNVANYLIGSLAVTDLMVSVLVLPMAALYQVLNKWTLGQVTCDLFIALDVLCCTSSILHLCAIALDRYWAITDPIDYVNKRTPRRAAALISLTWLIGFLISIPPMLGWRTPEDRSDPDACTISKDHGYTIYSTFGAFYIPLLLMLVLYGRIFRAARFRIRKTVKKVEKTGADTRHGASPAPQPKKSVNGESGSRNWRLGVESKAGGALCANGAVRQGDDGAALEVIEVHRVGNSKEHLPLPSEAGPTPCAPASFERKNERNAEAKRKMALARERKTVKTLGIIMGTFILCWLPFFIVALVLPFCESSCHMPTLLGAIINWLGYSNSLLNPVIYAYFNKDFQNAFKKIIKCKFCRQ

[2] = molecular target: T2, Neuropeptide Y receptor type 1 (Homo sapiens, UniProt P25929)
T2 sequence (P25929 whole entry): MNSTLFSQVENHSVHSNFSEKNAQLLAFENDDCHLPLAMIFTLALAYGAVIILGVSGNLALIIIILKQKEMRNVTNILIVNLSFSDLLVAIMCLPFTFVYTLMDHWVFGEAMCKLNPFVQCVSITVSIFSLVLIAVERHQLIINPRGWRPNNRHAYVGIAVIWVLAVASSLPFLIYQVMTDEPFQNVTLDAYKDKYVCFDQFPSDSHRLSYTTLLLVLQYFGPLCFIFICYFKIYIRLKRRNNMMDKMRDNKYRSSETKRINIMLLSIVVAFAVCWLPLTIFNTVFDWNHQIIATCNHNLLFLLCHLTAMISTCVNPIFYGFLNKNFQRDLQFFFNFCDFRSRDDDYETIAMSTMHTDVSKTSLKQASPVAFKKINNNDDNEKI

[3] = molecular target: Sodium-dependent noradrenaline transporter (Homo sapiens, UniProt P23975)
Sodium-dependent noradrenaline transporter, sequence (P23975 whole entry): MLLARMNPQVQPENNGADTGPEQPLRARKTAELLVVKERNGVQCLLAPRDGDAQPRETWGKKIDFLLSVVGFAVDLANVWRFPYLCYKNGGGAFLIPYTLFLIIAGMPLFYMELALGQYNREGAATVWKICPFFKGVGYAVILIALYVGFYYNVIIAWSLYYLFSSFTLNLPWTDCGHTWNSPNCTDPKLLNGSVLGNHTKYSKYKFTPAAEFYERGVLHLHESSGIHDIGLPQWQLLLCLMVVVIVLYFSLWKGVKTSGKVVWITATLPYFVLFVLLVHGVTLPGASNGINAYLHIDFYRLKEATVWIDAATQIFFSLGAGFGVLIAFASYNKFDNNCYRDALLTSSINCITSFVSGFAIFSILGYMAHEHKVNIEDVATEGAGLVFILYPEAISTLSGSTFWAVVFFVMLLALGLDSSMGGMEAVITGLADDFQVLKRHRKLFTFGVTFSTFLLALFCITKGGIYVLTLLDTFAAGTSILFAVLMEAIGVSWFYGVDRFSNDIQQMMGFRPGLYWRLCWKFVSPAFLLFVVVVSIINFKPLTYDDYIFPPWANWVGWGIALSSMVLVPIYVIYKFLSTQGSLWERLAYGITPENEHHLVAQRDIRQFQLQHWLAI

D(1A) dopamine receptor = D(1A) dopamine receptor (Homo sapiens, UniProt P21728); assay type: functional, cell-based
D(1A) dopamine receptor, sequence (P21728 whole entry): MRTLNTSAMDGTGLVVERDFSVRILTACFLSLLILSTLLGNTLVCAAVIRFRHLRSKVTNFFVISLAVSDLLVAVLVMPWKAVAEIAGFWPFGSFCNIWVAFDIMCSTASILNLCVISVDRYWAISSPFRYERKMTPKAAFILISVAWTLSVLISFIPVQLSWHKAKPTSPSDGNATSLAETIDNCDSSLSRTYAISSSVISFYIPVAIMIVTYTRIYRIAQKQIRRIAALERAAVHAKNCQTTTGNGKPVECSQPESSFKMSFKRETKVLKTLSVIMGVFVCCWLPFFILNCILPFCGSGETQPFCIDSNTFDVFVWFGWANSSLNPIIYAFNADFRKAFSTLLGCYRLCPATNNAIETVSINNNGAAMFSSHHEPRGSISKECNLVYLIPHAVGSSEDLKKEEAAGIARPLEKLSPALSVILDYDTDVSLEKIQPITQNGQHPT

Melanocortin receptor 3 = Melanocortin receptor 3 (Homo sapiens, UniProt P41968)
Melanocortin receptor 3, sequence (P41968 whole entry): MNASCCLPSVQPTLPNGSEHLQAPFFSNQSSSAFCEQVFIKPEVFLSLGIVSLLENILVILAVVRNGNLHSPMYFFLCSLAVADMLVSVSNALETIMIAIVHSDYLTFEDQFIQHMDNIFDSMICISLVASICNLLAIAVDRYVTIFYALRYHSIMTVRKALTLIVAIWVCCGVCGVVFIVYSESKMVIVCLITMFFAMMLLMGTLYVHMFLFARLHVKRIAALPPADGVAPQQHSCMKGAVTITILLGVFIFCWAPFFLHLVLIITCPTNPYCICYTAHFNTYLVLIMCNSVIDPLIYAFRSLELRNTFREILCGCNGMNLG

[4] = molecular target: 3',5'-cyclic-AMP phosphodiesterase 4D (Homo sapiens, UniProt Q08499); assay type: functional
3',5'-cyclic-AMP phosphodiesterase 4D, sequence (Q08499 whole entry): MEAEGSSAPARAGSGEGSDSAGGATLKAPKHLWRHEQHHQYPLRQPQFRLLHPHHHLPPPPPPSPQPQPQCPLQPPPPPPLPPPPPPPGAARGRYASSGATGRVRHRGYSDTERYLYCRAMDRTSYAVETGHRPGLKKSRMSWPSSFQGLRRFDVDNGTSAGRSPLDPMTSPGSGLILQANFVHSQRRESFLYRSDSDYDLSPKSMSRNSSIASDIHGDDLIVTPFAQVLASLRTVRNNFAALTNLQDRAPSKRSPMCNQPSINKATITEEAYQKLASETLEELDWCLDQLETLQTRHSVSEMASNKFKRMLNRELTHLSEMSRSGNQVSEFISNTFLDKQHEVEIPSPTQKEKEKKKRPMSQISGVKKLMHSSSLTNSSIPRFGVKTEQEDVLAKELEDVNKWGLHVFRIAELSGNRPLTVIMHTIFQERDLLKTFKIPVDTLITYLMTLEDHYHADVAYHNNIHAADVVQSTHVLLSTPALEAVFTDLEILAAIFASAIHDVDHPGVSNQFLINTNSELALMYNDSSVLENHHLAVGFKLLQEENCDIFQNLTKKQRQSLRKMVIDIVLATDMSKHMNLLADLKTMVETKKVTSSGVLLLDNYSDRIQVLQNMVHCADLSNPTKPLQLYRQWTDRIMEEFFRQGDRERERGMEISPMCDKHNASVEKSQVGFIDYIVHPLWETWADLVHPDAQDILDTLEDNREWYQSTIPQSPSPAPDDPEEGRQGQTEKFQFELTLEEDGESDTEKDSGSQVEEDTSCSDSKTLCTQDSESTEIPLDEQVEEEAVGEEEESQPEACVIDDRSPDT

[5] = molecular target: T3, Alpha-1A adrenergic receptor (Homo sapiens, UniProt P35348); assay type: functional, cell-based
T3 sequence (P35348 whole entry): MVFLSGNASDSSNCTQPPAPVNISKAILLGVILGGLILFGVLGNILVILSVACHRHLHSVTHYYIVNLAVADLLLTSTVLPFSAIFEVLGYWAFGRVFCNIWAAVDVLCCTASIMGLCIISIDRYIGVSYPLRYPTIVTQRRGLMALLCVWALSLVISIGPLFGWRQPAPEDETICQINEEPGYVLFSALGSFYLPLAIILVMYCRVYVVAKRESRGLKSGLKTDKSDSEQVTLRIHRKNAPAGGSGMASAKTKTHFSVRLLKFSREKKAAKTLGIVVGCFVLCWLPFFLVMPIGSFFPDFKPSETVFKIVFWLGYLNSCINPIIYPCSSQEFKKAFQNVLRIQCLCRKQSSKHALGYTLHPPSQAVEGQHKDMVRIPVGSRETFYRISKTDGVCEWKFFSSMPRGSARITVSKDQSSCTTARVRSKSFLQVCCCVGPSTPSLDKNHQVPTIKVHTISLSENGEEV

[6] = molecular target: T4, 5-hydroxytryptamine receptor 3A (Homo sapiens, UniProt P46098); assay type: functional
T4 sequence (P46098 whole entry): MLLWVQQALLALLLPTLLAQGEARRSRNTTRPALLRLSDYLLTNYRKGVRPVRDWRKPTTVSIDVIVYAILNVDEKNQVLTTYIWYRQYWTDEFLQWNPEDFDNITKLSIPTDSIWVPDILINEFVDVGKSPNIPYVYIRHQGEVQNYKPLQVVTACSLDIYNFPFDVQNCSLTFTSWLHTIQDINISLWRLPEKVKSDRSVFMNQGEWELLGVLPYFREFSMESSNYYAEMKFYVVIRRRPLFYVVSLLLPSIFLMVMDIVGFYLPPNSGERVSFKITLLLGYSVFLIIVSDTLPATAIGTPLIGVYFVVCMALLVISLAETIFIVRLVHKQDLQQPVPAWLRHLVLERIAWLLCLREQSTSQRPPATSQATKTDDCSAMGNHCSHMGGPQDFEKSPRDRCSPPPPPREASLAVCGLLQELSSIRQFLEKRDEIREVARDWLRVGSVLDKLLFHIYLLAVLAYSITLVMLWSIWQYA

[7] = molecular target: Glutamate receptor ionotropic, NMDA 1 (Rattus norvegicus, UniProt P35439)
[8] = molecular target: T5, Cholecystokinin receptor type A (Homo sapiens, UniProt P32238)
T5 sequence (P32238 whole entry): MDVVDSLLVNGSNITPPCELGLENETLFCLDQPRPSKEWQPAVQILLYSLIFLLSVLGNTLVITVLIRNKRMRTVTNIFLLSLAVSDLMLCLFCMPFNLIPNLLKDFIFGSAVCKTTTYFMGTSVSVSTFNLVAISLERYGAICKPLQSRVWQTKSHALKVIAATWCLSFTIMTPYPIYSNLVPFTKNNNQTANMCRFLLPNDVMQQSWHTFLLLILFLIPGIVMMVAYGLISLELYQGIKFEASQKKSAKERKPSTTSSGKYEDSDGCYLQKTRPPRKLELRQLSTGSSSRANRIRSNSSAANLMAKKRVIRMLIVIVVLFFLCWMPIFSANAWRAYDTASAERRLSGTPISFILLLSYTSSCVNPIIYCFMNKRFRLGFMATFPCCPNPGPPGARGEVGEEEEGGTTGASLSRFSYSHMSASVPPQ
Note: assay procedure not described here.

Row | SMILES | AC50 [1] | AC50 [2] | AC50 [3] | AC50 (D(1A) dopamine receptor) | AC50 (Melanocortin receptor 3) | AC50 [4] | AC50 [5] | AC50 [6] | AC50 [7] | AC50 [8]
1 | CC(C)CN(C[C@@H](O)[C@H](Cc1ccccc1)NC(=O)O[C@H]1CCOC1)S(=O)(=O)c1ccc(N)cc1 | > 10 µM | > 30 µM | > 10 µM | > 10 µM | > 30 µM | > 30 µM | 12 µM | > 30 µM | > 10 µM | > 30 µM
2 | CC1=C(CC(=O)O)c2cc(F)ccc2/C1=C\c1ccc([S+](C)[O-])cc1 (centres undefined) | > 10 µM | > 30 µM | > 30 µM | > 10 µM | > 30 µM | > 30 µM | > 30 µM | > 30 µM | > 10 µM | > 30 µM
3 | Cc1nnc2n1-c1ccc(Cl)cc1C(c1ccccc1)=NC2 [ALPRAZOLAM] | > 10 µM | > 30 µM | > 10 µM | > 10 µM | > 30 µM | > 30 µM | > 30 µM | > 30 µM | > 10 µM | > 30 µM
4 | CNCCc1ccccn1 [BETAHISTINE] | > 30 µM | > 30 µM | > 30 µM | > 30 µM | > 30 µM | > 30 µM | > 30 µM | > 30 µM | > 30 µM | > 30 µM
5 | CC(NC(C)(C)C)C(=O)c1cccc(Cl)c1 (centres undefined) [BUPROPION] | > 10 µM | > 30 µM |  | > 10 µM | > 30 µM |  | > 30 µM | > 10 µM | > 10 µM | > 30 µM
6 | CCCCOC(=O)c1ccc(N)cc1 [BUTAMBEN] | > 30 µM | > 30 µM | > 30 µM | > 30 µM | > 30 µM | 26 µM | > 30 µM | > 30 µM | > 30 µM | > 30 µM
7 | CN(Cc1ccc(C(C)(C)C)cc1)Cc1cccc2ccccc12 [BUTENAFINE] | > 10 µM | > 10 µM | > 10 µM | > 10 µM | > 10 µM | > 30 µM |  | > 30 µM | > 10 µM | > 10 µM
8 | O=C1CN=C(c2ccccc2Cl)c2cc([N+](=O)[O-])ccc2N1 [CLONAZEPAM] | > 10 µM | > 30 µM | > 10 µM | > 10 µM | > 30 µM | > 30 µM | > 30 µM | > 30 µM | > 10 µM | > 30 µM
9 | CC1CC(OC(=O)C(O)c2ccccc2)CC(C)(C)C1 (centres undefined) [CYCLANDELATE] | > 10 µM | > 10 µM | > 30 µM | > 10 µM | > 10 µM | > 30 µM |  | > 30 µM | > 10 µM | > 10 µM
10 | OCCN(CCO)c1nc(N2CCCCC2)c2nc(N(CCO)CCO)nc(N3CCCCC3)c2n1 [DIPYRIDAMOLE] | > 30 µM | > 30 µM | > 30 µM | > 30 µM | > 30 µM | 4.5 µM | > 30 µM | > 30 µM | > 30 µM | > 30 µM
11 | CCC1(C)CC(=O)NC1=O (centres undefined) [ETHOSUXIMIDE] | > 10 µM | > 10 µM | > 10 µM | > 30 µM | > 10 µM | > 30 µM |  | > 30 µM | > 10 µM | > 10 µM
12 | CN1C2CCCC1CC(NC(=O)c1nn(C)c3ccccc13)C2 (centres undefined) [GRANISETRON] | > 10 µM | > 30 µM | > 10 µM | > 10 µM | > 30 µM | > 10 µM | > 30 µM |  | > 10 µM | > 30 µM
13 | N=C(N)NC(=O)Cc1c(Cl)cccc1Cl [GUANFACINE] | 5.4 µM | > 30 µM | > 30 µM | > 30 µM | > 30 µM | > 30 µM |  | > 30 µM | > 30 µM | > 30 µM
14 | CC(=O)N1CCN(c2ccc(OCC3COC(Cn4ccnc4)(c4ccc(Cl)cc4Cl)O3)cc2)CC1 (centres undefined) [KETOCONAZOLE] | > 10 µM | > 10 µM | > 30 µM | > 10 µM | > 10 µM | > 10 µM |  | > 30 µM | > 10 µM | > 10 µM
15 | CN1CCC(=C2c3ccccc3CC(=O)c3sccc32)CC1 [KETOTIFEN] | > 10 µM | > 10 µM | > 10 µM | > 10 µM | > 10 µM | > 30 µM | 15 µM |  | > 10 µM | > 10 µM
16 | CCN(CC)CC(=O)Nc1c(C)cccc1C [LIDOCAINE] |  | > 30 µM |  |  | 23 µM | > 10 µM |  |  |  | > 30 µM
17 | Nc1cc(N2CCCCC2)nc(N)[n+]1[O-] [MINOXIDIL] | > 30 µM |  | > 30 µM | > 30 µM | > 30 µM | > 30 µM | > 30 µM | > 30 µM | > 10 µM | > 30 µM
18 | COc1nc(C)nc(Cl)c1N=C1NCCN1 [MOXONIDINE] | 6.5 µM | > 30 µM |  | > 30 µM | > 30 µM | > 30 µM |  | > 30 µM | > 30 µM | > 30 µM
19 | CN1CCCN=C1/C=C/c1cccc(O)c1 [OXANTEL] | > 30 µM | > 30 µM |  | > 30 µM | > 30 µM | 17 µM | > 30 µM | > 30 µM | > 30 µM | > 30 µM
20 | Nc1ccc(S(=O)(=O)Nc2ncccn2)cc1 [SULFADIAZINE] | > 10 µM | > 10 µM | > 10 µM | > 10 µM | > 10 µM | > 30 µM |  | > 30 µM | > 10 µM | > 10 µM
21 | Cc1cccc(Nc2ccncc2S(=O)(=O)NC(=O)NC(C)C)c1 [TORSEMIDE] | > 10 µM | > 30 µM | > 10 µM | > 10 µM | > 30 µM | > 30 µM |  | > 30 µM | > 10 µM | > 30 µM
